In ChEMBL document CHEMBL1201861, “Genomics of Drug Sensitity in Cancer screening data, Wellcome Trust Sanger Institute”:

What was measured:
[1] = system: EVSA-T; experiment: cells; type: functional, cell-based, Homo sapiens; details: Homo sapiens, EVSA-T;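 further: growth inhibition of EVSA-T cells, read out with a cell viability assay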
Description: SANGER: Inhibition of human EVSA-T cell growth in a cell viability assay.

[2] = system: EFM-19; experiment: cells; type: functional, cell-based, Homo sapiens; details: Homo sapiens, EFM-19;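 further: growth inhibition of human EFM-19 cells, measured in a cell viability assay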
Description: SANGER: Inhibition of human EFM-19 cell growth in a cell viability assay.

[3] = system: YT; experiment: cells; type: functional, cell-based; details: Homo sapiens
Description: SANGER: Inhibition of human YT cell growth in a cell viability assay.

[4] = system: BOKU; experiment: cells; type: functional, cell-based; details: Homo sapiens;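 further: growth inhibition of the human BOKU cell line, read out by a cell viability assay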
Description: SANGER: Inhibition of human BOKU cell growth in a cell viability assay.

[5] = system: CP50-MEL-B; experiment: cells; type: functional, cell-based, Homo sapiens; details: Homo sapiens, CP50-MEL-B;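 further: growth inhibition of the human cell line, measured with a cell viability read-out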
Description: SANGER: Inhibition of human CP50-MEL-B cell growth in a cell viability assay.

[6] = system: DMS-273; experiment: cells; type: functional, cell-based, Homo sapiens; details: Homo sapiens, DMS-273
Description: SANGER: Inhibition of human DMS-273 cell growth in a cell viability assay.

[7] = system: NALM-6; experiment: cells; type: functional, cell-based; details: Homo sapiens;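 further: growth inhibition of NALM-6 cells, read out with a cell viability assay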
Description: SANGER: Inhibition of human NALM-6 cell growth in a cell viability assay.

[8] = system: BL-70; experiment: SANGER: Inhibition of human BL-70 cell growth in a cell viability assay.; type: functional, cell-based
[9] = system: NCI-H522; experiment: cells; type: functional, cell-based, Homo sapiens; details: Homo sapiens, NCI-H522;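 further: cell viability assay measuring growth inhibition of human NCI-H522 cells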
Description: SANGER: Inhibition of human NCI-H522 cell growth in a cell viability assay.

[10] = system: Calu-6; experiment: cells; type: functional, cell-based, Homo sapiens; details: Homo sapiens, Calu-6;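 further: growth of human Calu-6 cells, read out by a cell viability assay, IC50 marking inhibition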
Description: SANGER: Inhibition of human Calu-6 cell growth in a cell viability assay.

[11] = system: DMS-153; experiment: cells; type: functional, cell-based; details: Homo sapiens
Description: SANGER: Inhibition of human DMS-153 cell growth in a cell viability assay.

[12] = system: HEL; experiment: cells; type: functional, cell-based, Homo sapiens; details: Homo sapiens, HEL;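 further: growth inhibition of HEL cells, read out with a cell viability assay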
Description: SANGER: Inhibition of human HEL cell growth in a cell viability assay.

[13] = system: LB831-BLC; experiment: cells; type: functional, cell-based, Homo sapiens; details: Homo sapiens, LB831-BLC;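 further: growth inhibition of LB831-BLC cells, read out with a cell viability assay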
Description: SANGER: Inhibition of human LB831-BLC cell growth in a cell viability assay.

[14] = system: NCI-H1694; experiment: cells; type: functional, cell-based; details: Homo sapiens;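 further: cell viability assay measuring inhibition of growth in human NCI-H1694 cells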
Description: SANGER: Inhibition of human NCI-H1694 cell growth in a cell viability assay.

[15] = system: REH; experiment: cells; type: functional, cell-based; details: Homo sapiens;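 further: growth inhibition of REH cells determined with a cell viability read-out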
Description: SANGER: Inhibition of human REH cell growth in a cell viability assay.

[16] = system: Raji; experiment: cells; type: functional, cell-based; details: Homo sapiens;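 further: cell viability assay measuring inhibition of Raji cell growth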
Description: SANGER: Inhibition of human Raji cell growth in a cell viability assay.

[17] = system: NCI-H889; experiment: cells; type: functional, cell-based; details: Homo sapiens;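 further: cell growth inhibition of the cell line, read out with a viability assay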
Description: SANGER: Inhibition of human NCI-H889 cell growth in a cell viability assay.

[18] = system: IMR-5; experiment: cells; type: functional, cell-based; details: Homo sapiens;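 further: growth inhibition of human IMR-5 cells, read out with a cell viability assay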
Description: SANGER: Inhibition of human IMR-5 cell growth in a cell viability assay.

[19] = system: NB6; experiment: cells; type: functional, cell-based, Homo sapiens; details: Homo sapiens, NB6;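 further: growth inhibition of NB6 cells, read out by a cell viability assay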
Description: SANGER: Inhibition of human NB6 cell growth in a cell viability assay.

[20] = system: GDM-1; experiment: cells; type: functional, cell-based; details: Homo sapiens;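 further: cell viability readout used to measure growth inhibition of human GDM-1 cells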
Description: SANGER: Inhibition of human GDM-1 cell growth in a cell viability assay.

[21] = system: NCI-H460; experiment: cells; type: functional, cell-based, Homo sapiens; details: Homo sapiens, NCI-H460;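 further: cell viability assay scoring growth inhibition of human NCI-H460 cells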
Description: SANGER: Inhibition of human NCI-H460 cell growth in a cell viability assay.

[22] = system: EHEB; experiment: cells; type: functional, cell-based; details: Homo sapiens;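 further: growth inhibition of human EHEB cells, read out with a cell viability assay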
Description: SANGER: Inhibition of human EHEB cell growth in a cell viability assay.

[23] = system: EB-3; experiment: cells; type: functional, cell-based; details: Homo sapiens;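 further: human EB-3 cells, growth inhibition read out via a cell viability assay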
Description: SANGER: Inhibition of human EB-3 cell growth in a cell viability assay.

[24] = system: NCI-H187; experiment: cells; type: functional, cell-based; details: Homo sapiens;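 further: growth inhibition of NCI-H187 cells, read out as cell viability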
Description: SANGER: Inhibition of human NCI-H187 cell growth in a cell viability assay.

[25] = system: C32; experiment: cells; type: functional, cell-based, Homo sapiens; details: Homo sapiens, C32;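 further: cell viability assay, with IC50 reflecting inhibition of C32 cell growth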
Description: SANGER: Inhibition of human C32 cell growth in a cell viability assay.

[26] = system: RPMI-7951; experiment: cells; type: functional, cell-based, Homo sapiens; details: Homo sapiens, RPMI-7951
Description: SANGER: Inhibition of human RPMI-7951 cell growth in a cell viability assay.

[27] = system: ST486; experiment: SANGER: Inhibition of human ST486 cell growth in a cell viability assay.; type: functional, cell-based
[28] = system: SF-539; experiment: cells; type: functional, cell-based, Homo sapiens; details: Homo sapiens, SF-539;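 further: Read-out is a cell viability assay, with IC50 reflecting inhibition of cell growth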
Description: SANGER: Inhibition of human SF539 cell growth in a cell viability assay.

[29] = system: NCI-H630; experiment: cells; type: functional, cell-based, Homo sapiens; details: Homo sapiens, NCI-H630;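 further: growth inhibition of NCI-H630 cells, read out with a cell viability assay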
Description: SANGER: Inhibition of human NCI-H630 cell growth in a cell viability assay.

[30] = system: KMS-12-PE; experiment: cells; type: functional, cell-based; details: Homo sapiens;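 further: growth inhibition of human KMS-12-PE cells, measured with a cell viability assay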
Description: SANGER: Inhibition of human KMS-12-PE cell growth in a cell viability assay.

[31] = system: NB5; experiment: cells; type: functional, cell-based, Homo sapiens; details: Homo sapiens, NB5;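 further: growth inhibition of NB5 cells, read out as cell viability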
Description: SANGER: Inhibition of human NB5 cell growth in a cell viability assay.

[32] = system: CPC-N; experiment: cells; type: functional, cell-based; details: Homo sapiens;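 further: growth inhibition of CPC-N cells, with a cell viability assay as the readout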
Description: SANGER: Inhibition of human CPC-N cell growth in a cell viability assay.

[33] = system: CHP-126; experiment: cells; type: functional, cell-based; details: Homo sapiens
Description: SANGER: Inhibition of human CHP-126 cell growth in a cell viability assay.

[34] = system: NCI-H2081; experiment: cells; type: functional, cell-based; details: Homo sapiens;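 further: growth inhibition of human NCI-H2081 cells, read out with a cell viability assay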
Description: SANGER: Inhibition of human NCI-H2081 cell growth in a cell viability assay.

[35] = system: HSC-2; experiment: cells; type: functional, cell-based, Homo sapiens; details: Homo sapiens, HSC-2;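 further: growth inhibition of human HSC-2 cells, read out by a cell viability assay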
Description: SANGER: Inhibition of human HSC-2 cell growth in a cell viability assay.

[36] = system: NCI-H719; experiment: cells; type: functional, cell-based; details: Homo sapiens;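 further: growth inhibition of the cultured cell line, read out with a viability assay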
Description: SANGER: Inhibition of human NCI-H719 cell growth in a cell viability assay.

[37] = system: NCI-H2171; experiment: cells; type: functional, cell-based; details: Homo sapiens;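 further: growth inhibition of human NCI-H2171 cells, read out by a cell viability assay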
Description: SANGER: Inhibition of human NCI-H2171 cell growth in a cell viability assay.

[38] = system: EM-2; experiment: cells; type: functional, cell-based; details: Homo sapiens;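 further: growth inhibition of EM-2 cells, read out with a cell viability assay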
Description: SANGER: Inhibition of human EM-2 cell growth in a cell viability assay.

[39] = system: OPM-2; experiment: cells; type: functional, cell-based; details: Homo sapiens;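 further: growth of OPM-2 cells measured with a viability assay, IC50 for suppression of proliferation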
Description: SANGER: Inhibition of human OPM-2 cell growth in a cell viability assay.

[40] = system: ES1; experiment: cells; type: functional, cell-based, Homo sapiens; details: Homo sapiens, ES1;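 further: growth inhibition of ES1 cells, read out with a cell viability assay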
Description: SANGER: Inhibition of human ES1 cell growth in a cell viability assay.

[41] = system: SK-MM-2; experiment: cells; type: functional, cell-based; details: Homo sapiens;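 further: growth inhibition of human SK-MM-2 cells, read out with a cell viability assay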
Description: SANGER: Inhibition of human SK-MM-2 cell growth in a cell viability assay.

[42] = system: LB996-RCC; experiment: cells; type: functional, cell-based; details: Homo sapiens
Description: SANGER: Inhibition of human LB996-RCC cell growth in a cell viability assay.

[43] = system: Detroit 562; experiment: cells; type: functional, cell-based, Homo sapiens; details: Homo sapiens, Detroit 562;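 further: growth inhibition of human Detroit 562 cells, read out by a cell viability assay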
Description: SANGER: Inhibition of human Detroit562 cell growth in a cell viability assay.

[44] = system: HCC2157; experiment: cells; type: functional, cell-based; details: Homo sapiens;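 further: growth inhibition of the cancer cell line, read out as cell viability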
Description: SANGER: Inhibition of human HCC2157 cell growth in a cell viability assay.

[45] = system: J-RT3-T3-5; experiment: cells; type: functional, cell-based; details: Homo sapiens;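 further: cell viability assay measuring growth inhibition of human J-RT3-T3-5 cells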
Description: SANGER: Inhibition of human J-RT3-T3-5 cell growth in a cell viability assay.

[46] = system: SUP-T1; experiment: cells; type: functional, cell-based; details: Homo sapiens;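 further: growth inhibition of human SUP-T1 cells, read out as cell viability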
Description: SANGER: Inhibition of human SUP-T1 cell growth in a cell viability assay.

[47] = system: PF-382; experiment: cells; type: functional, cell-based; details: Homo sapiens
Description: SANGER: Inhibition of human PF-382 cell growth in a cell viability assay.

[48] = system: NCI-H716; experiment: cells; type: functional, cell-based; details: Homo sapiens;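 further: growth inhibition of human NCI-H716 cells, measured by a cell viability assay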
Description: SANGER: Inhibition of human NCI-H716 cell growth in a cell viability assay.

[49] = system: CCRF-CEM; experiment: cells; type: functional, cell-based; details: Homo sapiens;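 further: inhibition of CCRF-CEM cell growth, measured by a cell viability assay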
Description: SANGER: Inhibition of human CCRF-CEM cell growth in a cell viability assay.

[50] = system: SIMA; experiment: cells; type: functional, cell-based, Homo sapiens; details: Homo sapiens, SIMA;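 further: growth inhibition of SIMA cells, measured with a cell viability readout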
Description: SANGER: Inhibition of human SIMA cell growth in a cell viability assay.

[51] = system: MV4-11; experiment: cells; type: functional, cell-based, MV-4-11; details: Homo sapiens;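 further: cell viability readout measuring growth inhibition of human MV-4-11 cells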
Description: SANGER: Inhibition of human MV-4-11 cell growth in a cell viability assay.

[52] = system: G-361; experiment: cells; type: functional, cell-based, Homo sapiens; details: Homo sapiens, G-361
[53] = system: NCI-H1882; experiment: cells; type: functional, cell-based; details: Homo sapiens;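 further: growth inhibition of the cell line, determined with a viability assay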
Description: SANGER: Inhibition of human NCI-H1882 cell growth in a cell viability assay.

[54] = system: LC-1F; experiment: cells; type: functional, cell-based; details: Homo sapiens;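 further: growth inhibition of human LC-1F cells, read out with a cell viability assay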
Description: SANGER: Inhibition of human LC-1F cell growth in a cell viability assay.

COC(=O)CNC(=O)C(=O)OC
IC50 [1]: > 4000 µM
IC50 [2]: 1080 µM
IC50 [3]: 23.4 µM
IC50 [4]: 177 µM
IC50 [5]: > 4000 µM
IC50 [6]: 16 µM
IC50 [7]: 85 µM
IC50 [8]: 15.9 µM
IC50 [9]: 293 µM
IC50 [10]: 732 µM
IC50 [11]: > 4000 µM
IC50 [12]: 197 µM
IC50 [13]: 911 µM
IC50 [14]: 291 µM
IC50 [15]: 308 µM
IC50 [16]: 609 µM
IC50 [17]: > 4000 µM
IC50 [18]: 254 µM
IC50 [19]: 1920 µM
IC50 [20]: 121 µM
IC50 [21]: 159 µM
IC50 [22]: 271 µM
IC50 [23]: 49.6 µM
IC50 [24]: 595 µM
IC50 [25]: > 4000 µM
IC50 [26]: 322 µM
IC50 [27]: 71 µM
IC50 [28]: 310 µM
IC50 [29]: 3880 µM
IC50 [30]: 628 µM
IC50 [31]: > 4000 µM
IC50 [32]: > 4000 µM
IC50 [33]: 3500 µM
IC50 [34]: 1010 µM
IC50 [35]: 504 µM
IC50 [36]: 566 µM
IC50 [37]: > 4000 µM
IC50 [38]: 234 µM
IC50 [39]: 28.8 µM
IC50 [40]: 1260 µM
IC50 [41]: 101 µM
IC50 [42]: 6.59 µM
IC50 [43]: 507 µM
IC50 [44]: > 4000 µM
IC50 [45]: 1740 µM
IC50 [46]: 143 µM
IC50 [47]: 85.4 µM
IC50 [48]: 1740 µM
IC50 [49]: 37.8 µM
IC50 [50]: 846 µM
IC50 [51]: 276 µM
IC50 [52]: 1180 µM
IC50 [53]: 134 µM
IC50 [54]: > 4000 µM

COc1cc([C@@H]2c3cc4c(cc3[C@@H](O[C@@H]3O[C@@H]5CO[C@@H](C)O[C@H]5[C@H](O)[C@H]3O)[C@H]3COC(=O)[C@H]23)OCO4)cc(OC)c1O [ETOPOSIDE]
IC50 [1]: > 16 µM
IC50 [2]: 0.868 µM
IC50 [3]: > 16 µM
IC50 [4]: 1.63 µM
IC50 [5]: > 16 µM
IC50 [6]: 0.573 µM
IC50 [7]: 0.206 µM
IC50 [8]: 7.07 µM
IC50 [9]: 3.36 µM
IC50 [10]: 4.06 µM
IC50 [11]: > 16 µM
IC50 [12]: 3.9 µM
IC50 [13]: 6.15 µM
IC50 [14]: 1.37 µM
IC50 [15]: 0.224 µM
IC50 [16]: 8.32 µM
IC50 [17]: > 16 µM
IC50 [18]: 0.469 µM
IC50 [19]: > 16 µM
IC50 [20]: 3.4 µM
IC50 [21]: 0.236 µM
IC50 [22]: > 16 µM
IC50 [23]: > 16 µM
IC50 [24]: 0.674 µM
IC50 [25]: > 16 µM
IC50 [26]: 2.29 µM
IC50 [27]: 2.25 µM
IC50 [28]: 1.61 µM
IC50 [29]: 9.12 µM
IC50 [30]: 9.91 µM
IC50 [31]: > 16 µM
IC50 [32]: > 16 µM
IC50 [33]: 6.27 µM
IC50 [34]: 4.92 µM
IC50 [35]: 0.706 µM
IC50 [36]: > 16 µM
IC50 [37]: > 16 µM
IC50 [38]: 1.58 µM
IC50 [39]: > 16 µM
IC50 [40]: 0.254 µM
IC50 [41]: 9.68 µM
IC50 [42]: > 16 µM
IC50 [43]: 11.1 µM
IC50 [44]: > 16 µM
IC50 [45]: 1.59 µM
IC50 [46]: 0.706 µM
IC50 [47]: 0.724 µM
IC50 [48]: > 16 µM
IC50 [49]: 0.17 µM
IC50 [50]: 8.85 µM
IC50 [51]: 0.151 µM
IC50 [52]: 0.834 µM
IC50 [53]: 2.68 µM
IC50 [54]: > 16 µM

Cn1cncc1[C@@](N)(c1ccc(Cl)cc1)c1ccc2c(c1)c(-c1cccc(Cl)c1)cc(=O)n2C [TIPIFARNIB]
IC50 [1]: > 16 µM
IC50 [2]: 1.75 µM
IC50 [3]: 1.65 µM
IC50 [4]: > 16 µM
IC50 [5]: > 16 µM
IC50 [6]: 0.72 µM
IC50 [7]: 0.0362 µM
IC50 [8]: 1.95 µM
IC50 [9]: 2.4 µM
IC50 [10]: 1.28 µM
IC50 [11]: > 16 µM
IC50 [12]: 0.394 µM
IC50 [13]: 2.64 µM
IC50 [14]: > 16 µM
IC50 [15]: 0.0592 µM
IC50 [16]: 12.5 µM
IC50 [17]: > 16 µM
IC50 [18]: > 16 µM
IC50 [19]: > 16 µM
IC50 [20]: 0.352 µM
IC50 [21]: 4.93 µM
IC50 [22]: > 16 µM
IC50 [23]: 9.1 µM
IC50 [24]: > 16 µM
IC50 [25]: > 16 µM
IC50 [26]: 13.5 µM
IC50 [27]: 1.26 µM
IC50 [28]: > 16 µM
IC50 [30]: > 16 µM
IC50 [31]: > 16 µM
IC50 [32]: 14.8 µM
IC50 [33]: > 16 µM
IC50 [34]: > 16 µM
IC50 [35]: 5.2 µM
IC50 [36]: 10.5 µM
IC50 [37]: 3.55 µM
IC50 [38]: > 16 µM
IC50 [39]: > 16 µM
IC50 [40]: 1.96 µM
IC50 [41]: > 16 µM
IC50 [42]: 7.69 µM
IC50 [43]: 4.07 µM
IC50 [44]: 0.323 µM
IC50 [45]: 1.32 µM
IC50 [46]: 0.787 µM
IC50 [47]: 1.71 µM
IC50 [48]: > 16 µM
IC50 [49]: 1.64 µM
IC50 [50]: > 16 µM
IC50 [51]: 0.733 µM
IC50 [52]: 1.14 µM
IC50 [53]: > 16 µM
IC50 [54]: > 16 µM
